Results reported in patent publication US5792457A, “Antibody recognizing endothelial cell ligand for leukocyte CR3” (priority 1995, dated 1998).
Entries after “also recorded” stand apart in the source; their conditions may differ.

Columns and labels:
[1] = test system: leukocyte migration into the CSF, pneumococcal meningitis; experiment: Rabbit model for meningitis: leukocyte migration into CSF; format: in vivo, New Zealand white rabbits; settings: for mean leukocyte concentration/μl CSF / mean leukocyte density, cells/μl CSF: 7 hours after challenge; for leukocyte migration into the CSF (in words): 0.1 μM (10^-1 μM) i.v.; for leukocyte migration into CSF (in words): 10^-3 μM; for reduction of CSF leukocytosis: intravenous injection; for mean leukocyte density, cells/μl CSF: 1 ml of 1 μM peptide i.v.
Text: FIG. 20A and B, is a graphical representation of the anti-inflammatory activity of FHA, and FHA- and factor X-derived peptides in experimental bacterial meningitis. FIG. 20 A: FHA .largecircle.; Control .quadrature.. FIG. 20B: FHA peptide Ia .largecircle.; FHA peptide II .box-solid.; Factor X peptide II .tangle-solidup.; scrambled FHA peptide II .circle-solid..
FIG. 21 is a graphical representation of the effect of concentration of peptide on inhibition of leukocyte migration into the CSF. FHA peptide Ia .largecircle., FHA peptide II .box-solid.; Factor X peptide II .tangle-solidup.(n≥4 per group). Two animals received intravenous injections of 10^-1 μM, 2×10^-2 μM or 2×10^-3 μM FHA (.circle-solid.). Values are means±standarddeviations of leukocyte densities at 7 hours after bacterial challenge. The horizontal lines indicate the mean and standard deviation of CSF leukocyte density in 10 control animals which received phosphate buffered saline.
FIG. 22 is a scattergram representation of the effect of variation of the FHA peptide II structure on efficacy of inhibition,of meningeal inflammation. Values are leukocyte densities at 7 hours for individual rabbits. The horizontal lines indicate the mean and standard deviation of CSF leukocyte density in 10 control animals which received phosphate buffered saline.
FIG. 23 is a scattergram representation of the ability of acetyl/amide FHA peptide II to inhibit accumulation of leukocytes in the CSF. Two groups of 10 animals were challenged with pneumococci. One hour later, the animals received an intravenous injection of 10 nmoles of the acetyl/amide peptide (8.2 μg) or phosphate buffered saline. Leukocyte density in CSF was determined 6 hours after pneumococcal challenge.
FIG. 28 is a graphical representation of the effect of FHA peptides on pneumococci induced leukocyte migration into the CSF during pneumococcal meningitis. Data represent mean±standard deviation of leukocyte concentration/μl CSF of at least 4 animals per group. Time is hours after pneumococcal challenge. FHA peptide Ca (.quadrature.); FHA peptide Cb (.largecircle.); FHA peptide Cd (.tangle-solidup.); Control (.diamond-solid.);
FIG. 29 is a graphical representation of a comparison of anti-inflammatory activity of FHA and FHA peptides in experimental meningitis. FHA peptide Ca (.quadrature.); FHA peptide Cb (.largecircle.), ≥ four animals/group; FHA (.tangle-solidup.), two animals/group. Values are means ±standard deviations of leukocyte concentrations/μl CSF at 7 hours after bacterial challenge. The horizontal lines indicate the mean±standard deviation of leukocyte concentrations in 10 control animals which received phosphate buffered saline.
The rabbit model was performed according to an established protocol. Specific pathogen free, New Zealand white rabbits (2 kg; Hare Marland, Nutley, N.J.) were anesthetized with valium (2.5 mg/kg, subcutaneously, Hoffman-LaRoche, Nutley, N.J.), ketamine (35 mg/kg, intra-muscularly, Aveco, Fort Dodge, Iowa) and xylazine (5 mg/kg, intramuscularly, Miles Laboratories, Shawnee, Kans.) and a helmet of dental acrylic was affixed to the calvarium. Twenty four hours later, the rabbits were anesthetized with ethyl carbamate (1.75 g/kg; Aldrich Chemical Co., Milwaukee, Wis.) and pentobarbital (15 mg/kg; Abbott Laboratories, Abbott Park, Ill.) and placed in a stereotaxic frame. A spinal needle was introduced into the cisterna magna and 300 μl of CSF was withdrawn. The animals were challenged intracisternally with 10^8 heat killed, unencapsulated pneumococcus strain R6 introduced in 200 μl of saline (time 0). One hour later, animals were treated with peptides dissolved in 1 ml of saline by intravenous injection into the right marginal ear vein. The concentration of FHA was 0.1 μM and that of the FHA Ia, Factor X II, and scrambled FHA II peptides was 10 μM. For the acetyl-FHA II, acetyl/amide-FHA II, dimer of FHA II and trimer of FHA II peptides, the concentration was 10^-3 μM. […]

[2] = test system: lactate metabolism during meningeal inflammation; experiment: Rabbit model for meningitis: lactate in CSF; format: in vivo, New Zealand white rabbits; settings: 6 hours after challenge
Procedure: The rabbit model was performed according to an established protocol. Specific pathogen free, New Zealand white rabbits (2 kg; Hare Marland, Nutley, N.J.) were anesthetized with valium (2.5 mg/kg, subcutaneously, Hoffman-LaRoche, Nutley, N.J.), ketamine (35 mg/kg, intra-muscularly, Aveco, Fort Dodge, Iowa) and xylazine (5 mg/kg, intramuscularly, Miles Laboratories, Shawnee, Kans.) and a helmet of dental acrylic was affixed to the calvarium. Twenty four hours later, the rabbits were anesthetized with ethyl carbamate (1.75 g/kg; Aldrich Chemical Co., Milwaukee, Wis.) and pentobarbital (15 mg/kg; Abbott Laboratories, Abbott Park, Ill.) and placed in a stereotaxic frame. A spinal needle was introduced into the cisterna magna and 300 μl of CSF was withdrawn. The animals were challenged intracisternally with 10^8 heat killed, unencapsulated pneumococcus strain R6 introduced in 200 μl of saline (time 0). One hour later, animals were treated with peptides dissolved in 1 ml of saline by intravenous injection into the right marginal ear vein. The concentration of FHA was 0.1 μM and that of the FHA Ia, Factor X II, and scrambled FHA II peptides was 10 μM. For the acetyl-FHA II, acetyl/amide-FHA II, dimer of FHA II and trimer of FHA II peptides, the concentration was 10^-3 μM. The concentration of FHA II is given in the results section. Samples of CSF were withdrawn at hourly intervals after pneumococcal inoculation and leukocyte density was measured using a cell counter (Coulter Electronics Inc., Hialeah, Fla.). CSF samples were centrifuged at 10,000×g for 5 minutes and the supernatant was stored at -70° C. until assayed for protein concentration using the bicinchoninic acid method (ECA Kit, Pierce Chemical Co., Rockford, Ill.) and for lactate concentration (Lactate Detection Kit, Sigma, St. Louis, Mo.). Statistically significant differences between treatments were determined by a one way analysis of variance test.
Loss of barrier function of the cerebral capillary endothelium during inflammation is reflected by an influx of serum proteins into the CSF. […] To examine if the peptides were able to ameliorate these measures of cerebral injury, CSF protein and lactate concentrations were measured hourly in peptide-treated and control animals (Table 10).
Mean values for CSF lactate and protein at time 0 were 18.6±5.8 and 0.8±0.2 respectively. Ten control animals received phosphate-buffered saline. The concentration of FHA II intravenously injected one hour after challenge with pneumococci was 10 μM. Values represent mean±standarddeviation of concentrations in CSF at 6 hours after pneumococcal challenge (n≥4 for peptide treated animals; n=4 for FHA). *Statistically significant difference as compared to control at p<0.02 (Mann-Whitney test).
Again, mean values for CSF lactate and protein at time 0 were 18.6±5.8 and 0.8±0.2, respectively. Ten control animals received phosphate-buffered saline. The concentrations of FHA II intravenously injected was 10^-3 μM. Values represent mean±standard deviation of concentrations in CSF at 6 hours after pneumococcal administration (n≥4 per group).

Substance	Lactate in CSF ([2]; peptides 10 μM, FHA 0.1 μM) [mg/100 ml]	mean leukocyte concentration/μl CSF ([1]; peptides 10 μM i.v.)	reduction of CSF leukocytosis [1] [%]	also measured
Ac-ETKEVDG-NH2 [Acetyl/Amide-FHA II]	24.3 ± 3.2	–	–	leukocyte migration into the CSF ([1]; 10 nmoles i.v., 6 hours post-pneumococcal challenge, n=10): 3011±684 cells/μl
DEETVK [scrambled FHA II, reference compound]	40.7 ± 5.8	6431±1380 /μl CSF	–	CSF leukocytosis (in words) ([1]; peptides 10 μM): ineffective
ETKEVDG [FHA II]	25.5 ± 4.1	2645 ±1412 /μl CSF	> 60	leukocyte migration into the CSF (in words) ([1]; listed as FHA peptide II): statistically significantly different from control at p<0.02; also recorded: more potent anti-inflammatory activity than the corresponding Factor X peptide II; leukocyte migration into CSF (in words) [1]: ineffective; Lactate in CSF ([2]; 10^-3 μM): 35.3 ± 6.7 mg/100 ml
GTLLLRNDALTENGTVTISA [FHA Cd]	–	–	–	leukocyte recruitment into the CSF (in words) ([1]; 1 μM peptide): no effect on the leukocyte recruitment into the CSF
GYDTKQEDG [Factor X II]	37.6 ± 6.9	1622±521 /μl CSF	> 60	–
LGYQAK (UniProt P12255 1979-1984, looked up, fragment) [FHA Ia]	36.0 ± 6.7	1640±1210 /μl CSF	> 60	–
RADPHQGVLAQGDIIMDAKG [FHA Cb]	–	–	–	leukocyte migration into the CSF (in words) [1]: ineffective at this dose; mean leukocyte density, cells/μl CSF [1]: 2788±1022 cells/μl CSF
RGDPHQGVLAQGDIIMDAKG [FHA Ca]	–	–	–	leukocyte migration into the CSF (in words) [1]: still significantly reduced leukocyte migration into the CSF; mean leukocyte density, cells/μl CSF [1]: 2137±1498 cells/μl CSF
native FHA: Filamentous hemagglutinin, 220kD surface associated protein of Bordetella pertussis (List Biologicals)	25.0 ± 5.3	–	> 60	leukocyte migration into the CSF (in words) ([1]; listed as FHA): statistically significantly different from control at p<0.05; also recorded: more potent anti-inflammatory activity than the corresponding Factor X peptide II; leukocyte migration into CSF (in words) [1]: ineffective; mean leukocyte concentration/μl CSF ([1]; FHA 25 μg, 0.1 μM i.v.): 2096±450 /μl CSF
